The values below come from patent publication US9999664B2, “HIV-1 gp120 mini V3 loop and uses thereof” (The Scripps Research Institute, priority 2011, dated 2018).

Assay [1] addresses HIV-1 BaL envelope (Env) on pseudovirus (HIV-1 BaL). Put plainly: cell-based or functional assay.
Assay [2] deals with HIV-1 JR-CSF envelope (Env) on pseudovirus (HIV-1 JR-CSF) (UniProt P20871). Put plainly: cell-based or functional assay.
In a further assay the target is gp120 BaL (HIV-1 BaL). Put plainly: gp120 ELISA. In general terms: In an ELISA, binding on a coated surface is turned into a signal by an enzyme label.
Assay [3] addresses gp120 JR-FL (HIV-1 JR-FL). Put plainly: gp120 ELISA.
Assay [4] addresses gp120 JR-CSF (HIV-1 JR-CSF) (UniProt P20871). Put plainly: gp120 ELISA.
A further assay deals with PGT 128. The assay can be described thus: Neoglycolipid microarray binding, PGT 128. Conditions: PGT 128 at 10 μg/ml pre-complexed with biotinylated anti-human-IgG; 5 fmol/spot. As for the experimental part: (§1) The microarrays (designated N-glycan-related Array Set 1) consisted of NGLs prepared by reductive amination (70) or oxime ligation (71) (Table S5). These were robotically printed onto nitrocellulose-coated glass slides as described (72), each at two levels (2 and 5 fmol/spot) in duplicate. The binding assays (70) were performed at ambient temperature. The PGTs 127 and 128 were pre-complexed with biotinylated anti-human-IgG (Vector) at a 1:3 ratio, w/w, before applying onto the slides at a final concentration of 10 μg/ml. Biotinylated ConA (Vector) was tested at 0.5 μg/ml. Binding was detected with Alexa-Fluor 647 labelled streptavidin (Molecular Probes) at 1 μg/ml. Microarray data analysis was performed with dedicated software. Binding signals were oligosaccharide dose-related. Results at 5 fmol/spot with selected oligomannose NGLs (prepared by reductive amination) are in FIG. 9A, and the full data with the 50 NGLs are shown in Table S6. Included for comparison are the results with human 2G12 (Polymun Scientific) taken from an earlier experiment performed using a different version of microarrays (73). Antibody 2G12 was analyzed at 1:10000 dilution (without pre-complexation), and the binding was detected with biotinylated anti-human-IgG followed by Alexa-Fluor 647 labelled streptavidin.

Another assay concerns the target T1, plant lectin ConA (Canavalia ensiformis, UniProt P02866).
T1 construct: purchased Vector
Put plainly: Neoglycolipid microarray binding, ConA. The conditions noted are these: biotinylated ConA at 0.5 μg/ml. As for the experimental part: as §1

The test system of a further assay is PGT 127. Put plainly: Neoglycolipid microarray binding, PGT 127. The conditions noted are these: PGT 127 at 10 μg/ml pre-complexed with biotinylated anti-human-IgG; 5 fmol/spot. As for the experimental part:
as §1

A further assay has as its system 2G12. Conditions: 2G12 at 1:10000 dilution; earlier experiment, different version of the microarray; cited from earlier work.

With PGT 128 IgG variant HC G55D (antibody), the values for the Fold change in neutralization (IC50 variant/IC50 WT antibody) in [1] and in [2] were 2.3 fold and 2 fold, respectively. Further, the fold change in gp120 binding (EC50 variant/EC50 WT) with gp120 BaL (HIV-1 BaL) was 2.5 fold; in assay [3], 1.4 fold; in assay [4], 0.7 fold.

PGT 128 IgG variant HC L51A (antibody): the Fold change in neutralization (IC50 variant/IC50 WT antibody) in assay [1] and in [2] was 1.2 fold in each case. In addition, the fold change in gp120 binding (EC50 variant/EC50 WT) was 1.5 fold with gp120 BaL (HIV-1 BaL), 0.7 fold in assay [3] and 0.7 fold in [4].

For the compound “Glcα-6Glcα-6Glcα-6Glcα-6Glcα-6Glc-AO [Dextran-6-AO]”, the “Fluorescence signal intensity 128” value with PGT 128 is reported as “— (Signal less than 1)”. Also, on plant lectin ConA, the “Fluorescence signal intensity ConA” value is recorded as 1,138. In addition, the “Fluorescence signal intensity 127” value with PGT 127 is listed as “— (Signal less than 1)”. Further, the “Fluorescence signal intensity 2G12” value in the assay with 2G12 is listed as “— (Signal less than 1)”.

As for `CCCCCCCCCCCCCCCCOCC(COP(=O)(O)OCCNCC(O)C(OC1OC(CO)C(O)C(O)C1O)C(O)C(O)CO)OCCCCCCCCCCCCCCCC` (stereo not drawn) [Man2(α3)-DH, Manα-3Man-DH], in the assay on PGT 128, the “Fluorescence signal intensity 128” value is reported as 82. The “Fluorescence signal intensity ConA” value on plant lectin ConA is “— (Signal less than 1)”. For the same compound, the “Fluorescence signal intensity 127” value in the assay with PGT 127 is listed as “— (Signal less than 1)”. For the same compound, in the assay with 2G12, the “Fluorescence signal intensity 2G12” value is given as 136.

For `CCCCCCCCCCCCCCCCOCC(COP(=O)(O)OCCNCC(NC(C)=O)C(O)C(OC1OC(CO)C(OC2OC(COC3OC(CO)C(O)C(O)C3O)C(O)C(OC3OC(CO)C(O)C(O)C3O)C2O)C(O)C1NC(C)=O)C(O)CO)OCCCCCCCCCCCCCCCC` (centres unmarked) [Man3aGN2-DH], the “Fluorescence signal intensity 128” value with PGT 128 was “— (Signal less than 1)”. In addition, the “Fluorescence signal intensity ConA” value at plant lectin ConA is on record as 14,192. For the same compound, in the assay with PGT 127, the “Fluorescence signal intensity 127” value is given as “— (Signal less than 1)”. The “Fluorescence signal intensity 2G12” value with 2G12 is listed as 24.

On to PGT 128 IgG variant HC N33A (antibody), for which the Fold change in neutralization (IC50 variant/IC50 WT antibody) worked out at 0.4 fold in assay [1] and 0.7 fold in assay [2]. Also, the fold change in gp120 binding (EC50 variant/EC50 WT) with gp120 BaL (HIV-1 BaL) came to 0.8 fold; in assay [3], 0.6 fold; in assay [4], 0.5 fold.

Consider `CCCCCCCCCCCCCCCCOCC(COP(=O)(O)OCCNCC(NC(C)=O)C(O)C(OC1OC(CO)C(OC2OC(COC3OC(CO)C(O)C(OC4OC(CO)C(O)C(O)C4O)C3O)C(O)C(OC3OC(CO)C(O)C(O)C3O)C2O)C(O)C1NC(C)=O)C(O)CO)OCCCCCCCCCCCCCCCC` (centres unmarked) [Man4aGN2-DH], for which the “Fluorescence signal intensity 128” value in the assay with PGT 128 is listed as 26. In addition, the “Fluorescence signal intensity ConA” value on plant lectin ConA is listed as 2,885. Moreover, the “Fluorescence signal intensity 127” value in the assay on PGT 127 is given as “— (Signal less than 1)”. Besides, the “Fluorescence signal intensity 2G12” value with 2G12 is given as “— (Signal less than 1)”.

On to `CCCCCCCCCCCCCCCCOCC(COP(=O)(O)OCCNCC(O)C(OC1OC(CO)C(O)C(O)C1O)C(O)C(O)COC1OC(CO)C(O)C(O)C1O)OCCCCCCCCCCCCCCCC` (stereo not drawn) [Man3(α3,α6)-DH], for which the “Fluorescence signal intensity 128” value in the assay on PGT 128 is on record as “— (Signal less than 1)”. Also, the “Fluorescence signal intensity ConA” value on plant lectin ConA was 759. Moreover, the “Fluorescence signal intensity 127” value in the assay with PGT 127 is given as “— (Signal less than 1)”. Moreover, the “Fluorescence signal intensity 2G12” value in the assay on 2G12 was “— (Signal less than 1)”.

Take PGT 128 IgG variant HC A31S (antibody): the Fold change in neutralization (IC50 variant/IC50 WT antibody) in [1] worked out at 1.2 fold; in [2], 1.1 fold. In addition, the fold change in gp120 binding (EC50 variant/EC50 WT) in the assay with gp120 BaL (HIV-1 BaL) was 0.9 fold; in assay [3], 1.1 fold; in assay [4], 0.8 fold.

With `CCCCCCCCCCCCCCCCOCC(COP(=O)(O)OCCNCC(NC(C)=O)C(O)C(OC1OC(CO)C(O)C(OC2OC(CO)C(O)C(O)C2O)C1O)C(O)CO)OCCCCCCCCCCCCCCCC` (centres unmarked) [Man2GN1-DH, Manα-3Manβ-4GlcNAc-DH], the “Fluorescence signal intensity 128” value with PGT 128 was determined as 16. For the same compound, the “Fluorescence signal intensity ConA” value on plant lectin ConA came to 575. Further, the “Fluorescence signal intensity 127” value in the assay on PGT 127 is listed as “— (Signal less than 1)”. The “Fluorescence signal intensity 2G12” value in the assay with 2G12 is “— (Signal less than 1)”.

For `CCCCCCCCCCCCCCCCOCC(COP(=O)(O)OCCNCC(O)C(OC1OC(CO)C(O)C(O)C1O)C(O)C(O)COC1OC(COC2OC(CO)C(O)C(O)C2O)C(O)C(OC2OC(CO)C(O)C(O)C2O)C1O)OCCCCCCCCCCCCCCCC` (stereo not drawn) [Man5(α3,α6)-DH], the “Fluorescence signal intensity 128” value in the assay with PGT 128 is reported as “— (Signal less than 1)”. Moreover, the “Fluorescence signal intensity ConA” value at plant lectin ConA was 15,291. The “Fluorescence signal intensity 127” value in the assay on PGT 127 is “— (Signal less than 1)”. In addition, the “Fluorescence signal intensity 2G12” value in the assay with 2G12 is recorded as 34.

As to PGT 128 IgG variant HC L100A (antibody), the Fold change in neutralization (IC50 variant/IC50 WT antibody) came out at 2 fold in assay [1] and 0.8 fold in [2]. For the same compound, the fold change in gp120 binding (EC50 variant/EC50 WT) with gp120 BaL (HIV-1 BaL) is 1.3 fold; in assay [4], 1.7 fold.

In the case of `CCCCCCCCCCCCCCCCOCC(COP(=O)(O)OCCNCC(NC(C)=O)C(O)C(OC1OC(CO)C(OC2OC(COC3OC(COC4OC(CO)C(O)C(O)C4O)C(O)C(OC4OC(CO)C(O)C(O)C4O)C3O)C(O)C(OC3OC(CO)C(O)C(O)C3O)C2O)C(O)C1NC(C)=O)C(O)CO)OCCCCCCCCCCCCCCCC` (centres unmarked) [Man5GN2-DH], the “Fluorescence signal intensity 128” value with PGT 128 was “— (Signal less than 1)”. For the same compound, at plant lectin ConA, the “Fluorescence signal intensity ConA” value is given as 16,390. Besides, the “Fluorescence signal intensity 127” value in the assay on PGT 127 is on record as “— (Signal less than 1)”. For the same compound, the “Fluorescence signal intensity 2G12” value with 2G12 is listed as “— (Signal less than 1)”.

For the compound `CCCCCCCCCCCCCCCCOCC(COP(=O)(O)OCCNCC(NC(C)=O)C(O)C(OC1OC(CO)C(OC2OC(COC3OC(COC4OC(CO)C(O)C(O)C4O)C(O)C(OC4OC(CO)C(O)C(O)C4O)C3O)C(O)C(OC3OC(CO)C(O)C(O)C3OC3OC(CO)C(O)C(O)C3O)C2O)C(O)C1NC(C)=O)C(O)CO)OCCCCCCCCCCCCCCCC` (centres unmarked) [Man6GN2-DH], the “Fluorescence signal intensity 128” value in the assay with PGT 128 is “— (Signal less than 1)”. Also, the “Fluorescence signal intensity ConA” value at plant lectin ConA is reported as 19,006. Further, the “Fluorescence signal intensity 127” value with PGT 127 is listed as “— (Signal less than 1)”. The “Fluorescence signal intensity 2G12” value in the assay on 2G12 is on record as 49.

Turning to `CCCCCCCCCCCCCCCCOCC(COP(=O)(O)OCCNCC(NC(C)=O)C(O)C(OC1OC(CO)C(OC2OC(COC3OC(COC4OC(CO)C(O)C(O)C4OC4OC(CO)C(O)C(O)C4O)C(O)C(OC4OC(CO)C(O)C(O)C4OC4OC(CO)C(O)C(O)C4O)C3O)C(O)C(OC3OC(CO)C(O)C(O)C3OC3OC(CO)C(O)C(O)C3OC3OC(CO)C(O)C(O)C3O)C2O)C(O)C1NC(C)=O)C(O)CO)OCCCCCCCCCCCCCCCC` (centres unmarked) [Man9GN2-DH], in the assay with PGT 128, the “Fluorescence signal intensity 128” value is 26,071. The “Fluorescence signal intensity ConA” value on plant lectin ConA is 21,359. For the same compound, the “Fluorescence signal intensity 127” value with PGT 127 is reported as 24,209. The “Fluorescence signal intensity 2G12” value in the assay with 2G12 was 11,717.

As to `CCCCCCCCCCCCCCCCOCC(COP(=O)(O)OCCNCC(NC(C)=O)C(O)C(OC1OC(CO)C(OC2OC(COC3OC(CO)C(O)C(O)C3O)C(O)C(OC3OC(CO)C(O)C(O)C3O)C2OC2OCC(O)C(O)C2O)C(O)C1NC(C)=O)C(O)CO)OCCCCCCCCCCCCCCCC` (centres unmarked) [Man3XylGN2-DH], in the assay on PGT 128, the “Fluorescence signal intensity 128” value is given as “— (Signal less than 1)”. Further, on plant lectin ConA, the “Fluorescence signal intensity ConA” value is given as 977. Also, the “Fluorescence signal intensity 127” value in the assay with PGT 127 is on record as “— (Signal less than 1)”. In the assay on 2G12, the “Fluorescence signal intensity 2G12” value is given as “— (Signal less than 1)”.
